For experiment [1], the system named is SKBR3 cells. Description: SKBR3 Cell Viability Assay (CellTiter Glo). The format is cell-based. The conditions noted are these: CellTiter Glo luminescence, read-out: MCL-1 CV SKBR3 EC50. Summed up:
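SKBR3 cells (6,000/well) in McCoy 5A + 10% FBS exposed to serially diluted compound for 72 h at 37° C., 5% CO2. Viability by CellTiter Glo luminescence; % inhibition normalized to DMSO (negative) and 10 μM puromycin (positive).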
A general note: ATP-based viability assays read luminescence as a measure of living cells.

Experiment [2] deals with MCL-1/Bim interaction (recombinant human MCL-1 protein, residues 171-327; biotinylated human Bim peptide, residues 51-76) (Homo sapiens (Human), UniProt Q07820). Description: MCL-1/Bim Binding AlphaLISA Assay. The note with it: 0.0625 nM 6xHis-Mcl-1 (171-327), 0.0625 nM biotinylated-Bim peptide. The method, boiled down:
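AlphaLISA with 0.0625 nM His-tagged MCL-1 and 0.0625 nM biotin-Bim peptide in 20 mM Hepes pH 7.5, 150 mM NaCl, 0.002% Brij 35, 1 mM DTT, 0.01% BSA. Compound preincubated 1 h with MCL-1, Bim added for 2 h, then acceptor and donor beads 1 h each.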
Background: Bead proximity is the source of the signal in Alpha formats.

Where two headings read alike, the source gives them in different places.

Chain of MCL-1/Bim interaction (recombinant human MCL-1 protein, residues 171-327; biotinylated human Bim peptide, residues 51-76) (Q07820 171-327): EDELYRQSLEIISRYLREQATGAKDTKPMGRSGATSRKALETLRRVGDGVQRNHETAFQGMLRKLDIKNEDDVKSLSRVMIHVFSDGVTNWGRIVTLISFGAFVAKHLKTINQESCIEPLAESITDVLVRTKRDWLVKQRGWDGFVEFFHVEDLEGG

`CO[C@H]1/C=C/C[C@H](C)C[S@@](=O)(NC(=O)N[C@@H]2C[C@@H]2C)=NC(=O)c2ccc3c(c2)N(C[C@@H]2CC[C@H]21)C[C@@]1(CCCc2cc(Cl)ccc21)CO3` [Example 162]: the EC50 in experiment [1] (Homo sapiens, SK-BR-3, 72 h) was determined as 136 nM. Moreover, the 50% inhibitory concentration (IC50) in experiment [2] amounted to 0.18 nM.
For `CO[C@H]1/C=C/C[C@H](C)C[S@@](=O)(NC(=O)c2cc3ccncn3c2)=NC(=O)c2ccc3c(c2)N(C[C@@H]2CC[C@H]21)C[C@@]1(CCCc2cc(Cl)ccc21)CO3` [Example 163], in that order: 98.7 nM and 0.263 nM.
For `CO[C@H]1/C=C/C[C@H](C)C[S@@](=O)(NC(=O)c2cn(C)nc2C2CC2)=NC(=O)c2ccc3c(c2)N(C[C@@H]2CC[C@H]21)C[C@@]1(CCCc2cc(Cl)ccc21)CO3` [Example 164], in that order: 106 nM and 0.141 nM.
For `CO[C@H]1/C=C/C[C@H](C)C[S@@](=O)(NC(=O)[C@H]2C[C@@](C)(O)C2)=NC(=O)c2ccc3c(c2)N(C[C@@H]2CC[C@H]21)C[C@@]1(CCCc2cc(Cl)ccc21)CO3` [Example 165], in that order: 45.5 nM and 0.035 nM.
Turning to `CO[C@H]1/C=C/C[C@H](C)[C@@H](C)[S@@](=O)(NC(=O)[C@H]2C[C@@](C)(O)C2)=NC(=O)c2ccc3c(c2)N(C[C@@H]2CC[C@H]21)C[C@@]1(CCCc2cc(Cl)ccc21)CO3` [Example 166], in experiment [1] (Homo sapiens, SK-BR-3, 72 h), the EC50 is 79.8 nM. In experiment [2], the IC50 was 0.067 nM.
The corresponding values for `CO[C@H]1/C=C/C[C@H](C)C[S@@](=O)(NC(=O)c2cc3n(c2)C[C@H](C)OC3)=NC(=O)c2ccc3c(c2)N(C[C@@H]2CC[C@H]21)C[C@@]1(CCCc2cc(Cl)ccc21)CO3` [Example 167] are 58.6 nM and 0.141 nM.
For `CO[C@H]1/C=C/C[C@H](C)C[S@@](=O)(NC(=O)c2cc3n(c2)C[C@@H](C)OC3)=NC(=O)c2ccc3c(c2)N(C[C@@H]2CC[C@H]21)C[C@@]1(CCCc2cc(Cl)ccc21)CO3` [Example 168], in that order: 74.2 nM and 0.222 nM.
For `CO[C@H]1/C=C/C[C@H](C)C[S@@](=O)(NC(=O)C2CC(C)(OC)C2)=NC(=O)c2ccc3c(c2)N(C[C@@H]2CC[C@H]21)C[C@@]1(CCCc2cc(Cl)ccc21)CO3` (stereo partly drawn) [Example 169], in that order: 61 nM and 0.048 nM.
With `CO[C@H]1CCC[C@H](C)C[S@@](=O)(NC(=O)NC2CC2)=NC(=O)c2ccc3c(c2)N(C[C@@H]2CC[C@H]21)C[C@@]1(CCCc2cc(Cl)ccc21)CO3` [Example 170], the concentration giving a half-maximal response (EC50) in experiment [1] (Homo sapiens, SK-BR-3, 72 h) was 210 nM. Further, in experiment [2], the IC50 stood at 0.06 nM.
For `CO[C@H]1/C=C/C[C@H](C)C[S@@](=O)(NC(=O)N[C@H]2C[C@@H]2CO)=NC(=O)c2ccc3c(c2)N(C[C@@H]2CC[C@H]21)C[C@@]1(CCCc2cc(Cl)ccc21)CO3` [Example 171], in that order: 130 nM and 0.033 nM.
Consider `CO[C@H]1/C=C/C[C@H](C)C[S@@](=O)(NC(=O)N[C@H]2C[C@](C)(O)C2)=NC(=O)c2ccc3c(c2)N(C[C@@H]2CC[C@H]21)C[C@@]1(CCCc2cc(Cl)ccc21)CO3` [Example 172], for which, in experiment [1] (Homo sapiens, SK-BR-3, 72 h), the half-maximal effective concentration (EC50) turned out to be 125 nM. Further, the half-maximal inhibitory concentration (IC50) in experiment [2] was 0.022 nM.
For `CO[C@H]1/C=C/C[C@H](C)C[S@@](=O)(NC(=O)c2cn(C)nc2N)=NC(=O)c2ccc3c(c2)N(C[C@@H]2CC[C@H]21)C[C@@]1(CCCc2cc(Cl)ccc21)CO3` [Example 173], in that order: 67.9 nM and 0.087 nM.
`CO[C@H]1/C=C/C[C@H](C)C[S@@](=O)(NC(=O)c2cc3n(c2F)CCCC3)=NC(=O)c2ccc3c(c2)N(C[C@@H]2CC[C@H]21)C[C@@]1(CCCc2cc(Cl)ccc21)CO3` [Example 174]: the EC50 in experiment [1] (72 hours) is 103 nM. Moreover, the concentration for half-maximal inhibition (IC50) in experiment [2] is 0.153 nM.
Regarding `COC1CCn2cc(C(=O)N[S@@]3(=O)=NC(=O)c4ccc5c(c4)N(C[C@@H]4CC[C@H]4[C@@H](OC)/C=C/C[C@H](C)C3)C[C@@]3(CCCc4cc(Cl)ccc43)CO5)cc2C1` (stereo partly drawn) [Example 175], the 50% effective concentration (EC50) in experiment [1] (Homo sapiens, SK-BR-3, 72 h) was found to be 33.9 nM. Moreover, the IC50 in experiment [2] worked out at 0.14 nM.
The corresponding values for `CO[C@H]1/C=C/C[C@H](C)C[S@@](=O)(NC(=O)c2cnn(C3CCC3)c2)=NC(=O)c2ccc3c(c2)N(C[C@@H]2CC[C@H]21)C[C@@]1(CCCc2cc(Cl)ccc21)CO3` [Example 176] are 79.3 nM and 0.138 nM.
For `COC(=O)N1CCn2cc(C(=O)N[S@@]3(=O)=NC(=O)c4ccc5c(c4)N(C[C@@H]4CC[C@H]4[C@@H](OC)/C=C/C[C@H](C)C3)C[C@@]3(CCCc4cc(Cl)ccc43)CO5)cc2C1` [Example 177], in experiment [1] (Homo sapiens, SK-BR-3, 72 h), the concentration for a half-maximal effect (EC50) is 46.4 nM. Besides, the IC50 in experiment [2] amounted to 0.129 nM.
The corresponding values for `CO[C@H]1/C=C/C[C@H](C)C[S@@](=O)(NC(=O)[C@H]2C[C@@H](C(C)(C)O)C2)=NC(=O)c2ccc3c(c2)N(C[C@@H]2CC[C@H]21)C[C@@]1(CCCc2cc(Cl)ccc21)CO3` [Example 178] are 144 nM and 0.141 nM.
Turning to `CO[C@H]1/C=C/C[C@H](C)C[S@@](=O)(NC(=O)N[C@@H]2CC[C@H]2OC)=NC(=O)c2ccc3c(c2)N(C[C@@H]2CC[C@H]21)C[C@@]1(CCCc2cc(Cl)ccc21)CO3` [Example 179], in experiment [1] (Homo sapiens, SK-BR-3, 72 h), the EC50 was 82.5 nM. Further, in experiment [2], the IC50 is 0.102 nM.
`CO[C@H]1/C=C/C[C@H](C)C[S@@](=O)(NC(=O)c2cc3n(c2)CCN(C(C)=O)C3)=NC(=O)c2ccc3c(c2)N(C[C@@H]2CC[C@H]21)C[C@@]1(CCCc2cc(Cl)ccc21)CO3` [Example 180]: in experiment [1] (Homo sapiens, SK-BR-3, 72 h), the EC50 was 134 nM. In addition, in experiment [2], the IC50 was 0.092 nM.
For `CO[C@H]1/C=C/C[C@H](C)C[S@@](=O)(NC(=O)N[C@@H]2C[C@H]2C2CCOCC2)=NC(=O)c2ccc3c(c2)N(C[C@@H]2CC[C@H]21)C[C@@]1(CCCc2cc(Cl)ccc21)CO3` [Example 181], in that order: 37.9 nM and 0.146 nM.
Consider `CO[C@H]1/C=C/C[C@H](C)C[S@@](=O)(NC(=O)N[C@@H]2C[C@H]2c2ccnn2C)=NC(=O)c2ccc3c(c2)N(C[C@@H]2CC[C@H]21)C[C@@]1(CCCc2cc(Cl)ccc21)CO3` [Example 182], for which, in experiment [1] (Homo sapiens, SK-BR-3, 72 h), the concentration for a half-maximal effect (EC50) is 136 nM. Besides, the half-inhibitory concentration (IC50) in experiment [2] came to 0.144 nM.
The corresponding values for `CO[C@H]1/C=C/C[C@H](C)C[S@@](=O)(NC(=O)c2cc(CO)n(C)c2)=NC(=O)c2ccc3c(c2)N(C[C@@H]2CC[C@H]21)C[C@@]1(CCCc2cc(Cl)ccc21)CO3` [Example 185] are 99.2 nM and 0.041 nM.
The corresponding values for `CO[C@H]1/C=C/C[C@H](C)C[S@@](=O)(NC(=O)N[C@H]2C[C@@](C)(O)C2)=NC(=O)c2ccc3c(c2)N(C[C@@H]2CC[C@H]21)C[C@@]1(CCCc2cc(Cl)ccc21)CO3` [Example 186] are 168 nM and 0.066 nM.
The corresponding values for `CCc1nn(C)cc1C(=O)N[S@@]1(=O)=NC(=O)c2ccc3c(c2)N(C[C@@H]2CC[C@H]2[C@@H](OC)/C=C/C[C@H](C)C1)C[C@@]1(CCCc2cc(Cl)ccc21)CO3` [Example 187] are 43.1 nM and 0.107 nM.
In the case of `COc1nn(C)cc1C(=O)N[S@@]1(=O)=NC(=O)c2ccc3c(c2)N(C[C@@H]2CC[C@H]2[C@@H](OC)/C=C/C[C@H](C)[C@H]1C)C[C@@]1(CCCc2cc(Cl)ccc21)CO3` [Example 188], the concentration for a half-maximal effect (EC50) in experiment [1] (Homo sapiens, SK-BR-3, 72 h) stood at 78.3 nM. In experiment [2], the IC50 was found to be 0.069 nM.
For `CO[C@H]1/C=C/C[C@H](C)C[S@@](=O)(NC(=O)N[C@H]2C[C@H](CO)C2)=NC(=O)c2ccc3c(c2)N(C[C@@H]2CC[C@H]21)C[C@@]1(CCCc2cc(Cl)ccc21)CO3` [Example 189], in that order: 64.3 nM and 0.033 nM.
For `COc1c(C(=O)N[S@@]2(=O)=NC(=O)c3ccc4c(c3)N(C[C@@H]3CC[C@H]3[C@@H](OC)/C=C/C[C@H](C)C2)C[C@@]2(CCCc3cc(Cl)ccc32)CO4)cn2c1COCC2` [Example 191], in that order: 123 nM and 0.103 nM.
For `CO[C@H]1/C=C/C[C@H](C)C[S@@](=O)(NC(=O)N[C@H]2C[C@](C)(OC)C2)=NC(=O)c2ccc3c(c2)N(C[C@@H]2CC[C@H]21)C[C@@]1(CCCc2cc(Cl)ccc21)CO3` [Example 192], in that order: 39.7 nM and 0.054 nM.
As for `CO[C@H]1/C=C/C[C@H](C)C[S@@](=O)(NC(=O)c2cc3n(n2)CCCO3)=NC(=O)c2ccc3c(c2)N(C[C@@H]2CC[C@H]21)C[C@@]1(CCCc2cc(Cl)ccc21)CO3` [Example 197], the EC50 in experiment [1] (Homo sapiens, SK-BR-3, 72 h) amounted to 130 nM. Besides, the IC50 in experiment [2] is 0.041 nM.
The corresponding values for `CO[C@H]1/C=C/C[C@H](C)C[S@@](=O)(NC(=O)C2CC(O)(C(F)(F)F)C2)=NC(=O)c2ccc3c(c2)N(C[C@@H]2CC[C@H]21)C[C@@]1(CCCc2cc(Cl)ccc21)CO3` (stereo partly drawn) [Example 198] are 104 nM and 0.043 nM.
The corresponding values for `CC[C@@H]1CC1NC(=O)N[S@@]1(=O)=NC(=O)c2ccc3c(c2)N(C[C@@H]2CC[C@H]2[C@@H](OC)/C=C/C[C@H](C)C1)C[C@@]1(CCCc2cc(Cl)ccc21)CO3` (stereo partly drawn) [Example 199] are 58.2 nM and 0.117 nM.
The corresponding values for `CC[C@H]1C/C=C/[C@H](OC)[C@@H]2CC[C@H]2CN2C[C@@]3(CCCc4cc(Cl)ccc43)COc3ccc(cc32)C(=O)N=[S@](=O)(NC(=O)c2cnn(C)c2)C1` [Example 201] are 103 nM and 0.042 nM.
Take `CC[C@H]1C/C=C/[C@H](OC)[C@@H]2CC[C@H]2CN2C[C@@]3(CCCc4cc(Cl)ccc43)COc3ccc(cc32)C(=O)N=[S@](=O)(NC(=O)c2cc3n(c2)CCOC3)C1` [Example 202]: the EC50 in experiment [1] (Homo sapiens, SK-BR-3, 72 h) was determined as 91 nM. The IC50 in experiment [2] stood at 0.082 nM.

Broadly, the EC50 is the concentration that produces a half-maximal response. Broadly, the IC50 is the midpoint of a concentration-inhibition curve.

For the origin of these results see patent US10703733B2, “MCL-1 inhibitors” (Gilead Sciences, Inc., priority 2018, dated 2020).
